Laboratory results reported in patent US6808904B2, “Herbicide-tolerant protox genes produced by DNA shuffling” (priority 1994, dated 2004).

Legend:
maize protox-1 mutants = experiment: Mutant screens of maize protox-1 (pMut-3) in the E. coli system; assay type: cell-based; settings: double mutant; screen on this herbicide
Experimental: The pMut-3 plasmid was transformed into the mutator XL1-Red strain as described above and the mutated DNA was isolated and plated on a herbicide concentration (formula XVII) that was lethal to the unmutagenized pMut-3 maize protox gene. Herbicide tolerant colonies were isolated after two days at 37° C. and analyzed as described above. […] Three of these mutations correspond to amino acid changes previously shown to confer tolerance at the homologous position in the Arabidopsis protox-1 gene. Two of the three are pMzC-1Val and pMzC-1Thr, converting the alanine (GCT) at amino acid 164 (SEQ ID NO:6) to either valine ([…]) or to threonine (ACT). This position corresponds to the pAraC-1 mutations described above (see, Table 1B; sub-sequence 3). The third analogous change, pMzC-3Ser, converts the glycine (GGT) at amino acid 165 to Serine (AGT), corresponding to the AraC-3Ser mutation described above (see, Table 1B; sub-sequence 4).
Additional mutant screens performed as described earlier in this example, except using formulas XXIIIa and XXIIIb instead of XVII, identified three additional amino acid changes that confer tolerant protox enzymes. […]

[1] = test system: Arabidopsis line expressing AraC-2Ile+AraC305Leu; experiment: Cross tolerance in a seed germination assay, homozygous Arabidopsis line with AraC-2Ile+AraC305Leu; assay type: in vivo, Arabidopsis thaliana; settings: AraC-2Ile+AraC305Leu line vs wt
Experimental: Using the procedure described above, an Arabidopsis protox-1 cDNA containing a TAC to ATG (Tyrosine to Methionine) change at nucleotides 1306-1308 in the protox-1 sequence (SEQ ID NO:1) was fused to the native protox-1 promoter fragment and transformed into Arabidopsis thaliana. […] Seed from the vacuum infiltrated plants was collected and plated on a range (10.0 nM-1.0 uM) of a protox inhibitory aryluracil herbicide of formula XVII. Multiple experiments with wild type Arabidopsis have shown that a 10.0 nM concentration of this compound is sufficient to prevent normal seedling germination. Transgenic seeds expressing the AraC-2Met altered enzyme fused to the native protox-1 promoter produced normal Arabidopsis seedlings at herbicide concentrations up to 500 nM, indicating at least 50-fold higher herbicide tolerance when compared to wild-type Arabidopsis. This promoter/altered protox enzyme fusion therefore functions as an effective selectable marker for plant transformation. Several of the plants that germinated on 100.0 nM of protox-inhibiting herbicide were transplanted to soil, grown 2-3 weeks, and tested in a spray assay with various concentrations of the protox-inhibiting herbicide. When compared to empty vector control transformants, the AraPT1Pro/AraC-2Met transgenics were >10-fold more tolerant to the herbicide spray.
Using the procedure described above, an Arabidopsis protox-1 cDNA containing both a TAC to ATC (tyrosine to isoleucine) change at nucleotides 1306-1308 and a TCA to TTA (serine to leucine) change at nucleotides 945-947 in the protox-1 sequence (SEQ ID NO:1) was fused to the native protox-1 promoter fragment and transformed into Arabidopsis thaliana.

[2] = biological target: T1, plant protox mutants (Arabidopsis protox-1) in SASX38 (Arabidopsis thaliana, UniProt P55826, T56K/Y426C); experiment: Bacterial cross-tolerance testing of resistant mutant plasmids in SASX38, Arabidopsis protox-1 mutants; assay type: cell-based; set-up: key to Cross tolerance, AraC-1Val / Cross tolerance, AraC-2Cys / Cross tolerance, AraC-1Thr / Cross tolerance, AraC-3Thr / Cross tolerance, AraC-2Ile / Cross tolerance, AraC-2Cys + AraC425Ser: + = 10× or more tolerant than WT; ++ = 100× or more tolerant than WT; − = no cross tolerance; settings: mutant AraC-2Cys vs WT plasmid in SASX38
T1 construct: contains only 17 amino acids of the putative chloroplast transit peptide; expressed in transfected cells; host or cells: E. coli SASX38 (hemG mutant)
T1 sequence (P55826 41-537 T56K/Y426C): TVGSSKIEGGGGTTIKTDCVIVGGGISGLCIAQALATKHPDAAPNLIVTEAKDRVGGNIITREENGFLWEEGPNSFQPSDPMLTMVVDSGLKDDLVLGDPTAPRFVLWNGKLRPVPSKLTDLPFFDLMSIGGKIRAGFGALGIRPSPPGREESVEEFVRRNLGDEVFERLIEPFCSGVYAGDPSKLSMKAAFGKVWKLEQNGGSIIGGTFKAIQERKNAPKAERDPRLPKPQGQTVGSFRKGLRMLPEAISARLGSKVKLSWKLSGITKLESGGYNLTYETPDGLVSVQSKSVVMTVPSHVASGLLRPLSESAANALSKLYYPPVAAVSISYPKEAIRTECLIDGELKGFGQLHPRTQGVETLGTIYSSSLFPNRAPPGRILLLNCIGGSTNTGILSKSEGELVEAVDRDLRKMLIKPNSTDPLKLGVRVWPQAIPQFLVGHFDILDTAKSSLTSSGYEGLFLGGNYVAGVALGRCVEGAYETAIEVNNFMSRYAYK
Experimental: (§1) Resistant mutant plasmids, originally identified based on resistance against a single protox inhibitory herbicide, were tested against a spectrum of other protox inhibiting compounds. For this test, the SASX38 strain containing the wild-type plasmid is plated on a range of concentrations of each compound to determine the lethal concentration for each one. Resistant mutant plasmids in SASX38 are plated and scored for the ability to survive on a concentration of each compound at least 10 fold higher than the concentration that is lethal to the SASX38 strain containing the wild-type plasmid.

[3] = biological target: T2, plant protox mutants (Arabidopsis protox-1) in SASX38 (Arabidopsis thaliana, UniProt P55826, A220T/T56K); experiment: as above; assay type: cell-based; set-up: key to Cross tolerance, AraC-1Val / Cross tolerance, AraC-2Cys / Cross tolerance, AraC-1Thr / Cross tolerance, AraC-3Thr / Cross tolerance, AraC-2Ile / Cross tolerance, AraC-2Cys + AraC425Ser: + = 10× or more tolerant than WT; ++ = 100× or more tolerant than WT; − = no cross tolerance; settings: mutant AraC-1Thr vs WT plasmid in SASX38
T2 construct: contains only 17 amino acids of the putative chloroplast transit peptide; expressed in transfected cells; host or cells: E. coli SASX38 (hemG mutant)
T2 sequence (P55826 41-537 T56K/A220T): as the sequence (P55826 41-537 T56K/Y426C) above, with A180T, C386Y counted along it
Experimental: as §1

[4] = biological target: T3, plant protox mutants (Arabidopsis protox-1) in SASX38 (Arabidopsis thaliana, UniProt P55826, A220V/T56K); experiment: as above; assay type: cell-based; set-up: key to Cross tolerance, AraC-1Val / Cross tolerance, AraC-2Cys / Cross tolerance, AraC-1Thr / Cross tolerance, AraC-3Thr / Cross tolerance, AraC-2Ile / Cross tolerance, AraC-2Cys + AraC425Ser: + = 10× or more tolerant than WT; ++ = 100× or more tolerant than WT; − = no cross tolerance; settings: mutant AraC-1Val vs WT plasmid in SASX38
T3 construct: contains only 17 amino acids of the putative chloroplast transit peptide; expressed in transfected cells; host or cells: E. coli SASX38 (hemG mutant)
T3 sequence (P55826 41-537 T56K/A220V): as the sequence (P55826 41-537 T56K/Y426C) above, with A180V, C386Y counted along it
Experimental: as §1

[5] = test system: plant protox mutants (Arabidopsis protox-1) in SASX38; experiment: as above; assay type: cell-based; set-up: key to Cross tolerance, AraC-1Val / Cross tolerance, AraC-2Cys / Cross tolerance, AraC-1Thr / Cross tolerance, AraC-3Thr / Cross tolerance, AraC-2Ile / Cross tolerance, AraC-2Cys + AraC425Ser: + = 10× or more tolerant than WT; ++ = 100× or more tolerant than WT; − = no cross tolerance; settings: mutant AraC-3Thr vs WT plasmid in SASX38
Experimental: as §1

[6] = biological target: T4, plant protox mutants (MzC-1Val, maize protox-1) in SASX38 (Arabidopsis thaliana, UniProt P55826, A220V/A252T/A259N/A262P/A292S/A82G/A83V/D204A/D323E/D487E/D93A/DEL80-81/E103P/E263P/E288N/E311D/E351S/E499D/F107Y/F178L/F250I/F483L/G171P/G277A/G306S/G313K/G344N/G441S/H340Y/I100T/I174L/I370V/I421V/I485L/I71T/I87L/INS101VE/K237R/K257S/K359R/K388Q/K457N/K465V/K78R/K92R/L137F/L159P/L310S/L325V/L345I/L360F/L436V/L86V/M122V/N105E/N149E/N241T/N258K/N316V/N355D/N459T/N85D/P266A/P418D/P458S/P84G/Q240E/Q272K/R284A/R293S/S186P/S291T/S305T/S312D/S330A/S352D/S369T/S430A/S439T/S460A/S491A/S492A/S495R/S496G/T141N/T160A/T318E/T379K/T397S/T461V/T488A/T494D/T56K/V126A/V334I/V337I/V95P); experiment: Bacterial cross-tolerance testing of resistant mutant plasmids in SASX38, maize protox-1 mutant; assay type: cell-based; settings: mutant MzC-1Val vs WT plasmid in SASX38
T4 construct: expressed in transfected cells; host or cells: E. coli SASX38 (hemG mutant)
T4 sequence (P55826 other isoform, or with tags, fused parts or gaps with the stated changes): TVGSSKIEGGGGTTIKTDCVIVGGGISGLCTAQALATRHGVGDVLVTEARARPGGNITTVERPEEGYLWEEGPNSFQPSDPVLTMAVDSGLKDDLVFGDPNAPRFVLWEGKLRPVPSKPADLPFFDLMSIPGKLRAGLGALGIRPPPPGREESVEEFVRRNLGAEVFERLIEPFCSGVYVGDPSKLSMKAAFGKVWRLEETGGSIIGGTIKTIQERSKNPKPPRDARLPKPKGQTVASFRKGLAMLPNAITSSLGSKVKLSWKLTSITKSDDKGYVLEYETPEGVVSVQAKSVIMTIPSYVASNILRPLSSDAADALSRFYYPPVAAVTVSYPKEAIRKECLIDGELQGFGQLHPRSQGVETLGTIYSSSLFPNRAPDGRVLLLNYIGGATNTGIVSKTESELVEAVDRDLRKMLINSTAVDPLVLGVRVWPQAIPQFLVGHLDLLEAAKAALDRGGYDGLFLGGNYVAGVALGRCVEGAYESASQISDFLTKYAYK
Experimental: as §1

[7] = biological target: T5, plant protox mutants (Arabidopsis protox-1) in SASX38 (Arabidopsis thaliana, UniProt P55826, N425S/T56K/Y426M); experiment: Bacterial cross-tolerance testing of resistant mutant plasmids in SASX38, Arabidopsis protox-1 mutants; assay type: cell-based; set-up: key to Cross tolerance, AraC-1Val / Cross tolerance, AraC-2Cys / Cross tolerance, AraC-1Thr / Cross tolerance, AraC-3Thr / Cross tolerance, AraC-2Ile / Cross tolerance, AraC-2Cys + AraC425Ser: + = 10× or more tolerant than WT; ++ = 100× or more tolerant than WT; − = no cross tolerance; settings: mutant AraC-2Met + AraC425Ser
T5 construct: contains only 17 amino acids of the putative chloroplast transit peptide; expressed in transfected cells; host or cells: E. coli SASX38 (hemG mutant)
T5 sequence (P55826 41-537 T56K/N425S/Y426M): as the sequence (P55826 41-537 T56K/Y426C) above, with N385S, C386M counted along it
Experimental: as §1

[8] = biological target: T6, plant protox mutants (Arabidopsis protox-1) in SASX38 (Arabidopsis thaliana, UniProt P55826, N425S/T56K/Y426L); experiment: as above; assay type: cell-based; set-up: key to Cross tolerance, AraC-1Val / Cross tolerance, AraC-2Cys / Cross tolerance, AraC-1Thr / Cross tolerance, AraC-3Thr / Cross tolerance, AraC-2Ile / Cross tolerance, AraC-2Cys + AraC425Ser: + = 10× or more tolerant than WT; ++ = 100× or more tolerant than WT; − = no cross tolerance; settings: mutant AraC-2Leu + AraC425Ser
T6 construct: contains only 17 amino acids of the putative chloroplast transit peptide; expressed in transfected cells; host or cells: E. coli SASX38 (hemG mutant)
T6 sequence (P55826 41-537 T56K/N425S/Y426L): as the sequence (P55826 41-537 T56K/Y426C) above, with N385S, C386L counted along it
Experimental: as §1

[9] = biological target: T7, plant protox mutants (Arabidopsis protox-1) in SASX38 (Arabidopsis thaliana, UniProt P55826, N425S/T56K/Y426C); experiment: as above; assay type: cell-based; set-up: key to Cross tolerance, AraC-1Val / Cross tolerance, AraC-2Cys / Cross tolerance, AraC-1Thr / Cross tolerance, AraC-3Thr / Cross tolerance, AraC-2Ile / Cross tolerance, AraC-2Cys + AraC425Ser: + = 10× or more tolerant than WT; ++ = 100× or more tolerant than WT; − = no cross tolerance; settings: mutant AraC-2Cys + AraC425Ser
T7 construct: contains only 17 amino acids of the putative chloroplast transit peptide; expressed in transfected cells; host or cells: E. coli SASX38 (hemG mutant)
T7 sequence (P55826 41-537 T56K/N425S/Y426C): as the sequence (P55826 41-537 T56K/Y426C) above, with N385S counted along it
Experimental: as §1

[10] = biological target: T8, plant protox mutants (Arabidopsis protox-1) in SASX38 (Arabidopsis thaliana, UniProt P55826, A220L/T56K); experiment: as above; assay type: cell-based; set-up: key to Cross tolerance, AraC-1Val / Cross tolerance, AraC-2Cys / Cross tolerance, AraC-1Thr / Cross tolerance, AraC-3Thr / Cross tolerance, AraC-2Ile / Cross tolerance, AraC-2Cys + AraC425Ser: + = 10× or more tolerant than WT; ++ = 100× or more tolerant than WT; − = no cross tolerance; settings: mutant AraC-1Leu
T8 construct: contains only 17 amino acids of the putative chloroplast transit peptide; expressed in transfected cells; host or cells: E. coli SASX38 (hemG mutant)
T8 sequence (P55826 41-537 T56K/A220L): as the sequence (P55826 41-537 T56K/Y426C) above, with A180L, C386Y counted along it
Experimental: as §1

Cn1nc(-c2ncc(Cl)cc2F)c(Cl)c1OC(F)F [Formula XXIIIa]
tolerance of maize enzyme Mz347Ser453Thr (maize protox-1 mutants): highly tolerant

CS(=O)(=O)NC(=O)c1cc(Oc2ccc(C(F)(F)F)cc2Cl)ccc1[N+](=O)[O-] [III]
Tolerance [1]: + (+ ≧ 10× more tolerant than wt)

O=C([O-])c1cc(Oc2ccc(C(F)(F)F)cc2Cl)ccc1[N+](=O)[O-].[Na+] [II]
Tolerance [1]: + (+ ≧ 10× more tolerant than wt)

COC(=O)c1cc(Oc2ccc(Cl)cc2Cl)ccc1[N+](=O)[O-] [IVb]
Tolerance [1]: + (+ ≧ 10× more tolerant than wt)

CCOc1cc(Oc2ccc(C(F)(F)F)cc2Cl)ccc1[N+](=O)[O-] [IVc]
Tolerance [1]: + (+ ≧ 10× more tolerant than wt)

CCOC(=O)C(C)OC(=O)c1cc(Oc2ccc(C(F)(F)F)cc2Cl)ccc1[N+](=O)[O-] (stereo not drawn) [IVd]
Tolerance [1]: ± (± ≦ 10× more tolerant than wt)

CCOC(=O)COc1cc(-c2nn(C)c(OC(F)F)c2Cl)c(F)cc1Cl [XII]
Cross tolerance, AraC-2Cys [2]: −
Cross tolerance, AraC-1Thr [3]: ++ (++ = 100× or more tolerant than WT)
Cross tolerance, AraC-1Val [4]: + (+ = 10× or more tolerant than WT)
Cross tolerance, AraC-3Thr [5]: ++ (++ = 100× or more tolerant than WT)
Cross tolerance, MzC-1Val [6]: ++ (++ = 100× or more tolerant than WT)

C#CCN1C(=O)COc2cc(F)c(N3C(=O)C4=C(CCCC4)C3=O)cc21 [XVI]
Tolerance [1]: +++ (+++ ≧ 1000× more tolerant than wt)
Cross tolerance, AraC-2Met + AraC425Ser [7]: ++ (++ = 100× or more tolerant than WT)
Cross tolerance, AraC-2Cys [2]: −
Cross tolerance, AraC-2Leu + AraC425Ser [8]: ++ (++ = 100× or more tolerant than WT)
Cross tolerance, AraC-2Cys + AraC425Ser [9]: + (+ = 10× or more tolerant than WT)
Cross tolerance, AraC-1Thr [3]: −
Cross tolerance, AraC-1Val [4]: −
Cross tolerance, AraC-3Thr [5]: −
Cross tolerance, MzC-1Val [6]: + (+ = 10× or more tolerant than WT)

C#CC(C)Oc1cc(N2C(=O)C3=C(CCCC3)C2=O)c(F)cc1Cl (stereo not drawn) [XV]
Cross tolerance, AraC-2Met + AraC425Ser [7]: ++ (++ = 100× or more tolerant than WT)
Cross tolerance, AraC-2Cys [2]: + (+ = 10× or more tolerant than WT)
Cross tolerance, AraC-2Cys + AraC425Ser [9]: ++ (++ = 100× or more tolerant than WT)
Cross tolerance, AraC-1Leu [10]: ++ (++ = 100× or more tolerant than WT)
Cross tolerance, AraC-1Thr [3]: + (+ = 10× or more tolerant than WT)
Cross tolerance, AraC-1Val [4]: + (+ = 10× or more tolerant than WT)
Cross tolerance, AraC-3Thr [5]: + (+ = 10× or more tolerant than WT)
Cross tolerance, MzC-1Val [6]: + (+ = 10× or more tolerant than WT)

CC(Cl)C(=O)Nc1c([N+](=O)[O-])cnn1-c1c(Cl)cc(C(F)F)cc1Cl (stereo not drawn) [XXIa]
Tolerance [1]: + (+ ≧ 10× more tolerant than wt)

Cc1nn(-c2cc(NS(C)(=O)=O)c(Cl)cc2Cl)c(=O)n1C(F)F [X]
Tolerance [1]: + (+ ≧ 10× more tolerant than wt)
